In one assay the target is T1, STAT3 (Homo sapiens, UniProt P40763).
T1 construct: Recombinant STAT3 protein (STAT3(G127-I722))
In words: STAT3 Fluorescence Polarization (FP) Assay. It counts as binding. The protocol:
An FP assay was developed to determine IC50 values for test substances.
Recombinant STAT3 protein (STAT3(G127-I722)) at 25 nM was combined with a fluorescently labeled, phosphotyrosine peptide probe (5-FAM-GpYLPQTV-NH2) at 2 nM in FP buffer (10 mM HEPES pH 7.4, 50 mM NaCl, 1 mM EDTA, 0.05% Tween 20, 2 mM DTT). 50 μL of STAT3-probe mixture was added to serial diluted compounds in black, 96-well plates (Greiner BioOne 655076) to a final concentration of 1% DMSO. Reaction components were mixed, and FP was measured after 45-minute incubation at room temperature using a Tecan Spark multimode plate reader. FP signal (mP) was plotted against the log concentration of the test substances and IC50 values were calculated by nonlinear regression analysis using GraphPad Prism software. For STAT3 FP assay, A=≤100 nM; B=>100-1000 nM; C=>1-10 μM; and D=>10 μM.
On the technique in general: Polarisation of emitted light reports the rotation of a fluorescent probe.

In another assay the target is T2, STAT6 (Homo sapiens, UniProt P42226).
T2 construct: Recombinant STAT6 protein (STAT6(W123-T658))
T2 sequence (P42226 123-658): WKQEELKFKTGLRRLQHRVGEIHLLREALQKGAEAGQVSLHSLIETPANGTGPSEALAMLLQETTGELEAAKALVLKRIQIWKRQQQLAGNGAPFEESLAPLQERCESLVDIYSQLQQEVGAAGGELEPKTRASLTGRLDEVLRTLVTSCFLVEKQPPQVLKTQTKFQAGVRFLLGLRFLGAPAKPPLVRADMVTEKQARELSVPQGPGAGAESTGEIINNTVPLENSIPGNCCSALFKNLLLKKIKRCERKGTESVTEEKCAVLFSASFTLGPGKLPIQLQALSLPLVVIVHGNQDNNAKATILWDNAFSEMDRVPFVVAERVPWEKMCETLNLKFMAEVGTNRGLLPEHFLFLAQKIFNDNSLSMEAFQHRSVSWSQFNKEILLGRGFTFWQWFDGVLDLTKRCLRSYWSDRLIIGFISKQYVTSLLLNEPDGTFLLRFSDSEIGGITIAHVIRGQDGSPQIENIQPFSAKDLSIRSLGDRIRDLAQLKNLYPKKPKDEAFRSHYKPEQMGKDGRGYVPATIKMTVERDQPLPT
In words: STAT6 Fluorescence Polarization (FP) Assay. Type of assay: binding. The protocol: An FP assay was developed to determine IC50 values for test substances. Recombinant STAT6 protein (STAT6(W123-T658)) at 250 nM was combined with a fluorescently labeled, phosphotyrosine peptide probe (5-FAM-ApYKPFQDLI-NH2) at 2 nM in FP buffer (10 mM HEPES pH 7.4, 50 mM NaCl, 1 mM EDTA, 0.05% Tween 20, 2 mM DTT). 50 μL of STAT6-probe mixture was added to serial diluted compounds in black, 96-well plates (Greiner BioOne 655076) to a final concentration of 1% DMSO. Reaction components were mixed, and FP was measured after 45-minute incubation at room temperature using a Tecan Spark multimode plate reader. FP signal (mP) was plotted against the log concentration of the test substances and IC50 values were calculated by nonlinear regression analysis using GraphPad Prism software. For STAT6 FP assay, A=≤300 nM; B=>300-3000 nM; C=>3-30 μM; and D=>30 μM.

For another assay, the target named is pSTAT3 (Homo sapiens, UniProt P40763). The assay is described as follows: MSD-pSTAT-PBMC Assay (pSTAT3, IL-6 stimulated). Type of assay: cell-based. From the text: Cryopreserved Peripheral Blood Mononuclear Cells (PBMC) are from AllCells. Recombinant Human IL-4 and IL-6 are from Peprotech. Mouse monoclonal anti-STAT3 antibody, rabbit monoclonal anti-pY705-STAT3 antibody, rabbit monoclonal Anti-pY641-STAT6 antibody, and lysis buffer are from Cell Signaling Technology (CST). Mouse monoclonal anti-STAT6 antibody is from BioLegend. Assay plates, blocker, and anti-rabbit secondary antibody are from Meso Scale Discovery (MSD).
Cryopreserved PBMCs were thawed out and allowed to recover overnight in IMDM+10% heat-inactivated FBS prior to plating 50,000 (STAT3) or 25,000 (STAT6) cells per well in 96-well U-bottom tissue culture plates. Cells were treated with compound for 3 hrs, then stimulated with 10 ng/mL IL-6 (STAT3) or 1 ng/mL IL-4 (STAT6) for 10 min. Cells were then spun down and washed with ice-cold PBS prior to lysing the cell pellet with 1× lysis buffer (CST) with 1× HALT protease and phosphatase inhibitor cocktail (Thermo). Lysates were transferred to and incubated overnight at 4° C. with shaking in QuickPlex 96-well high bind assay plates (MSD) pre-coated overnight with 30 μL per well of […] mouse monoclonal anti-STAT3 antibody (STAT3) or 2 μg/mL mouse monoclonal anti-STAT6 antibody (STAT6) in 1× PBS, and pre-blocked for 1 hour with 3% Blocker-A (MSD). Captured protein in the assay plates were then washed and probed with 25 μL per well of […] rabbit monoclonal anti-pY705-STAT3 antibody (STAT3) or […] rabbit monoclonal Anti-pY641-STAT6 antibody (STAT6) in 1% Blocker-A for 1 hour at room temperature with shaking, then washed and probed with 25 ul per well of 1 ug/ml Sulfo-TAG Labeled Goat Anti-Rabbit Antibody (MSD) in 1% Blocker-A for 1 hour at room temperature with shaking. Assay plates were then washed and 150 μL of 1× Read Buffer-T (MSD) was added to each well prior to reading on an SQ120 MSD Plate Reader. Assay signal from each sample was subtracted by the signal from unstimulated control wells and normalized to DMSO control wells. IC50 values were calculated using Graph Pad Prism Dose-Response Nonlinear Regression with variable slope. For both pSTAT3 and pSTAT6 A=≤100 nM; B=>100-1000 nM; C=>1000-3000 nM; and D=>3 μM.

[1] abbreviates: compound 3 hrs, then 10 ng/mL IL-6 10 min, pY705-STAT3, read-out: pSTAT3 IC50.
[2] abbreviates: read-out: pSTAT3 IC50, compound 3 hrs, then 10 ng/mL IL-6 10 min, pY705-STAT3.

Read-outs that look alike come from different tables or passages of the source.

T1 sequence (P40763 127-722): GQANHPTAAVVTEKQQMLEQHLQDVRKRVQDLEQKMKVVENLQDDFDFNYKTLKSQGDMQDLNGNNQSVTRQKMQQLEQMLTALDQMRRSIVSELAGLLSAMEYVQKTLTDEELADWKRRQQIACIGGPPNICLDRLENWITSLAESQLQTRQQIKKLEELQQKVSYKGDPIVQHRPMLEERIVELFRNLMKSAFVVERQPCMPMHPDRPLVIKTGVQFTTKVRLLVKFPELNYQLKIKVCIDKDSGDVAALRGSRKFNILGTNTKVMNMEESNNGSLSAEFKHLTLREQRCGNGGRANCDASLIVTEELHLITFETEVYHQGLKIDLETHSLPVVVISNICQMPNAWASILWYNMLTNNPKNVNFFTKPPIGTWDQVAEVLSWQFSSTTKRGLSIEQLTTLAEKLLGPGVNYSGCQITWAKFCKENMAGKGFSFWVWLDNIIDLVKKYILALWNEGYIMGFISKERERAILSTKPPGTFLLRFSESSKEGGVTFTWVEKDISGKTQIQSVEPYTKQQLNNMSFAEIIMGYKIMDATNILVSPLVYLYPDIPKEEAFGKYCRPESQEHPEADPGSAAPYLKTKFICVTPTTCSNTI
pSTAT3, sequence (P40763 whole entry): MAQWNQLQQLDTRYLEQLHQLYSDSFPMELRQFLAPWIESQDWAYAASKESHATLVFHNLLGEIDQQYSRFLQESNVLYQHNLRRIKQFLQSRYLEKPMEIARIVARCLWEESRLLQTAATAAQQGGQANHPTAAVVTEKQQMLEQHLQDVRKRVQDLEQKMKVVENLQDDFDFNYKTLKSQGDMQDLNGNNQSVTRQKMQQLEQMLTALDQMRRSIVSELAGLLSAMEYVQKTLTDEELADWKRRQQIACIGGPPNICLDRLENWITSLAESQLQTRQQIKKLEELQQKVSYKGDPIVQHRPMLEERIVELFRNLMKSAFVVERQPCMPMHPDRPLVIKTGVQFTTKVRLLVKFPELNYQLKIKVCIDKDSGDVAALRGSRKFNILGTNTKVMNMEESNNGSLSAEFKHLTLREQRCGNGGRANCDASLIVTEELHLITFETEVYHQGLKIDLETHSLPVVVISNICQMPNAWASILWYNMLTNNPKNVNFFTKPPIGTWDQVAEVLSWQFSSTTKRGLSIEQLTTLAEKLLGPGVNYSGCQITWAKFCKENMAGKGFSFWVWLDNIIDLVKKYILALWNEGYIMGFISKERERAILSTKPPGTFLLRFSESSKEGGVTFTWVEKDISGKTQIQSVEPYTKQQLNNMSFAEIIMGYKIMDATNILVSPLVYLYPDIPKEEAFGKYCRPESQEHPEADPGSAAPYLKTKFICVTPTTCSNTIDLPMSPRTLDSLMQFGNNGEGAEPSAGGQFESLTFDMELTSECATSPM

As to `Cn1c(=O)n(C2CCC(=O)NC2=O)c2ccc(C#CCCC3CCN(c4ccncc4C4CN(C(=O)[C@@H]5CC[C@@H]6CCC[C@H](NC(=O)c7cc8cc(C(F)(F)P(=O)(O)O)ccc8s7)C(=O)N65)C4)CC3)cc21` (stereo partly drawn) [Compound 34, ((2-(((3S,6S,9aS)-3-(3-(4-(4-(4-(1-(2,6-dioxopiperidin-3-yl)-3-methyl-2-oxo-2,3-dihydro-1H-benzo[d]imidazol-5-yl)but-3-yn-1-yl)piperidin-1-yl)pyridin-3-yl)azetidine-1-carbonyl)-5-oxooctahydro-1H-pyrrolo[1,2-a]azepin-6-yl)carbamoyl)benzo[b]thiophen-5-yl)difluoromethyl)phosphonic acid], the IC50 at STAT3 was < 0.1 µM; at STAT6, 0.3 to 3 µM; at pSTAT3 (setting [1]), 0.1 to 1 µM.
Take `Cc1ncsc1-c1ccc([C@H](C)NC(=O)[C@@H]2C[C@@H](O)CN2C(=O)[C@@H](NC(=O)COCCOCC(=O)NC2(c3ccccn3)CN(C(=O)[C@@H]3CC[C@H]4CCCC[C@H](NC(=O)c5cc6cc(C(F)(F)P(=O)(O)O)ccc6s5)C(=O)N43)C2)C(C)(C)C)cc1` [Compound 31, (difluoro(2-(((3S,6S,10aR)-3-(3-(2-(2-(2-(((S)-1-((2S,4R)-4-hydroxy-2-(((S)-1-(4-(4-methylthiazol-5-yl)phenyl)ethyl)carbamoyl)pyrrolidin-1-yl)-3,3-dimethyl-1-oxobutan-2-yl)amino)-2-oxoethoxy)ethoxy)acetamido)-3-(pyridin-2-yl)azetidine-1-carbonyl)-5-oxodecahydropyrrolo[1,2-a]azocin-6-yl)carbamoyl)benzo[b]thiophen-5-yl)methyl)phosphonic acid]: the values for the IC50 against STAT3, against STAT6 and at pSTAT3 (setting [2]) were < 0.1 µM, 3 to 30 µM and > 3 µM, respectively.
For `Cc1ncsc1-c1ccc([C@H](C)NC(=O)[C@@H]2C[C@@H](O)CN2C(=O)[C@@H](NC(=O)COCCOCCC(=O)NC2(c3ccccn3)CN(C(=O)[C@@H]3CC[C@H]4CCCC[C@H](NC(=O)c5cc6cc(C(F)(F)P(=O)(O)O)ccc6s5)C(=O)N43)C2)C(C)(C)C)cc1` [Compound 33, (difluoro(2-(((3S,6S,10aR)-3-(3-(3-(2-(2-(((S)-1-((2S,4R)-4-hydroxy-2-(((S)-1-(4-(4-methylthiazol-5-yl)phenyl)ethyl)carbamoyl)pyrrolidin-1-yl)-3,3-dimethyl-1-oxobutan-2-yl)amino)-2-oxoethoxy)ethoxy)propanamido)-3-(pyridin-2-yl)azetidine-1-carbonyl)-5-oxodecahydropyrrolo[1,2-a]azocin-6-yl)carbamoyl)benzo[b]thiophen-5-yl)methyl)phosphonic acid], in that order: < 0.1 µM, 3 to 30 µM and > 3 µM.
On the same counts, the results for `Cn1c(=O)n(C2CCC(=O)NC2=O)c2ccc(C#CCCC3CCN(c4ccncc4C4CN(C(=O)[C@@H]5CC[C@@H]6CCC[C@H](NC(=O)c7cc8cc([C@@H](F)P(=O)(O)O)ccc8s7)C(=O)N65)C4)CC3)cc21` (stereo partly drawn) [Compound 40, ((1S)-(2-(((3S,6S,9aS)-3-(3-(4-(4-(4-(1-(2,6-dioxopiperidin-3-yl)-3-methyl-2-oxo-2,3-dihydro-1H-benzo[d]imidazol-5-yl)but-3-yn-1-yl)piperidin-1-yl)pyridin-3-yl)azetidine-1-carbonyl)-5-oxooctahydro-1H-pyrrolo[1,2-a]azepin-6-yl)carbamoyl)benzo[b]thiophen-5-yl)fluoromethyl)phosphonic acid] are < 0.1 µM, > 30 µM and < 0.1 µM.
`O=C(COc1cccc2c1C(=O)N(C1CCC(=O)NC1=O)C2=O)NCCOCCOCCC(=O)NC1(c2ccccn2)CN(C(=O)[C@@H]2CC[C@H]3CCCC[C@H](NC(=O)c4cc5cc(C(F)(F)P(=O)(O)O)ccc5s4)C(=O)N32)C1` (stereo partly drawn) [Compound 30, ((2-(((3S,6S,10aR)-3-(3-(3-(2-(2-(2-((2-(2,6-dioxopiperidin-3-yl)-1,3-dioxoisoindolin-4-yl)oxy)acetamido)ethoxy)ethoxy)propanamido)-3-(pyridin-2-yl)azetidine-1-carbonyl)-5-oxodecahydropyrrolo[1,2-a]azocin-6-yl)carbamoyl)benzo[b]thiophen-5-yl)difluoromethyl)phosphonic acid]: the IC50 on STAT3 is < 0.1 µM; against STAT6 it was 3 to 30 µM; on pSTAT3 (setting [2]), > 3 µM.
On to `O=C1CCC(c2ccc(OCCOc3ccncc3C3CN(C(=O)[C@@H]4CC[C@@H]5CCC[C@H](NC(=O)c6cc7cc(C(F)(F)P(=O)(O)O)ccc7s6)C(=O)N54)C3)cc2)C(=O)N1` (stereo partly drawn) [Compound 9, ((2-(((3S,6S,9aS)-3-(3-(4-(2-(4-(2,6-dioxopiperidin-3-yl)phenoxy)ethoxy)pyridin-3-yl)azetidine-1-carbonyl)-5-oxooctahydro-1H-pyrrolo[1,2-a]azepin-6-yl)carbamoyl)benzo[b]thiophen-5-yl)difluoromethyl)phosphonic acid], for which the IC50 on STAT3 is < 0.1 µM; against STAT6, 3 to 30 µM; at pSTAT3 (setting [1]) it was > 3 µM.
Take `CN(CCOc1ccc(C2CCC(=O)NC2=O)cc1)c1ccncc1C1CN(C(=O)[C@@H]2CC[C@@H]3CCC[C@H](NC(=O)c4cc5cc(C(F)(F)P(=O)(O)O)ccc5s4)C(=O)N32)C1` (stereo partly drawn) [Compound 21, ((2-(((3S,6S,9aS)-3-(3-(4-((2-(4-(2,6-dioxopiperidin-3-yl)phenoxy)ethyl)(methyl)amino)pyridin-3-yl)azetidine-1-carbonyl)-5-oxooctahydro-1H-pyrrolo[1,2-a]azepin-6-yl)carbamoyl)benzo[b]thiophen-5-yl)difluoromethyl)phosphonic acid]: the IC50 against STAT3 was < 0.1 µM; against STAT6, 3 to 30 µM; at pSTAT3 (setting [1]), > 3 µM.

Values taken from patent US20260306642A1, “STAT DEGRADERS AND USES THEREOF” (Recludix Pharma, Inc., priority 2023, published 2026).
